# US20080293587A1, “Method of Screening a Biological Target for Weak Interactions Using Weak Affinity Chromatography” (Transientic Interactions AB, priority 2005, published 2008)
# Target: bovine serum albumin (BSA) (Bos taurus, UniProt P02769)
# Settings: bupivacain 1 mM; for retardation in zonal weak affinity chromatography in a well (peak apex): immobilized BSA, mobile phase 0.05 M sodium phosphate buffer pH 7.0, 20° C., UV 230 nm, propranolol 0.25 mM, sodium azide 0.5 mM
# Experimental: 200 mg of reference gel (diol-silica) and assay gel (BSA-diol-silica) were suspended in 1 ml methanol and packed into each well in a 96-well filtering system (Captiva® 96-well 10μ glassfiber filter plate from Ansys Technologies (Company), see FIG. 1) using vacuum applied to the wells. The gel in the wells was first washed with 5 ml MeOH and then with 5 ml 0.1 M sodium phosphate buffer pH 7.0. Filter discs were placed on top of the gel material in each well.
# Wells containing gel materials were washed carefully with 0.05 M sodium phosphate buffer pH 7.0 using vacuum collar to remove non-bound BSA, contaminants and entrapped air. The excess of buffer was gently removed from the surface of the wells using pipette and 10 μl of test substances were injected centrally in each wells which were then flushed with mobile phase (0.05 M sodium phosphate buffer pH 7.0). Vacuum was applied to the collar and the mobile phase was flowed into a 96 well collection plate (Nunclon, Nalgene-Nunc) within 8-10 seconds. Vacuum was then reduced and the collection plate (approximately 0.2 ml in each well) was replaced with a new one. This fraction collection process was repeated with 20-75 plates. During this procedure the wells were eluted with mobile phase continuously. […] The eluates in the plates were transferred carefully by automatic pipettes and weighed to estimate the retention volume. All procedures were performed at room temperature (20° C.). Eluted substances were detected by UV-scans at 230 nm. Chromatograms were obtained by plotting UV absorbance versus fraction volume.
# Chain of bovine serum albumin (BSA) (P02769 25-607): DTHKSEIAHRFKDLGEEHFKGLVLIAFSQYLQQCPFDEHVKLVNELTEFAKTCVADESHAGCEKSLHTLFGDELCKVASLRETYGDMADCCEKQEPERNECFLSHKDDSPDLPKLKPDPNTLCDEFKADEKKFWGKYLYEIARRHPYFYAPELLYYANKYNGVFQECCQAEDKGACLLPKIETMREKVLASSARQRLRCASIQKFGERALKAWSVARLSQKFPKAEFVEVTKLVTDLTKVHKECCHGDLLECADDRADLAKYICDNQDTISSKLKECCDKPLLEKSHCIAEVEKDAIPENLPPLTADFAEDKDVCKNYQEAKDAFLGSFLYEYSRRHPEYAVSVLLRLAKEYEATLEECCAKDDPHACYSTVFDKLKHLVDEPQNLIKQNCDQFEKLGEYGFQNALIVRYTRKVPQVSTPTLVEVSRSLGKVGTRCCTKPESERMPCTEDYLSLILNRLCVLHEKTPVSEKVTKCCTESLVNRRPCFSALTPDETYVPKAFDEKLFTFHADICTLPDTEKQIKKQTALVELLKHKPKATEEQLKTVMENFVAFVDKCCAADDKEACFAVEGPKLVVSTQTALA
Compound,retardation in zonal weak affinity chromatography in a well (peak apex),"well-to-well reproducibility of retardation in zonal weak affinity chromatography (three different wells, chromatography repeated once in each well)"
CC(C)NCC(O)COc1cccc2ccccc12 (stereo not drawn) [propranolol],retarded,–
CCCCN1CCCCC1C(=O)Nc1c(C)cccc1C (stereo not drawn) [Bupivacain],retarded,retarded
